What was measured:
[1] = biological target: T1, human GLP-1R receptor (Homo sapiens, UniProt P43220); assay: GLP-1R low expression cell assay (cAMP TR-FRET, CHO-K1_hGLP-1Rlow_clone10 cells); format: cell-based; conditions: for EC50: cAMP TR-FRET, 30 min at 25° C.; for Emax: maximum activation relative to control GLP-1 peptide agonist
T1 construct: expressed in transfected cells
How it was run: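 CHO-K1 cells stably expressing low surface human GLP-1R (clone10), 1,000 cells/well, exposed to 10-point 3-fold compound dilutions for 30 min at 25 °C. cAMP measured by TR-FRET (Eu-cAMP tracer/ULight-anti-cAMP, 15 min). EC50 from Hill fit of duplicate percent activation relative to a parallel GLP-1 control agonist.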

[2] = Rat pharmacokinetics, oral dosing; format: in vivo, Sprague-Dawley rats; conditions: male, Sprague-Dawley, oral dosing at 3 mg/kg, plasma; for half-life: read-out: Rat T1/2
Protocol: Intravenous dosing: Compounds were formulated at 1.0 mg/mL in a solution comprising 5% polyethylene glycol 400 and 95% (12% (w/v) sulfobutyl-β-cyclodextrin in water) (v/v). Formulated compounds were sterile filtered through a 0.22 micron filter before dosing. Compounds were administered to male, 7-11-week-old Sprague-Dawley rats by jugular vein cannula infusion over 30 minutes at a dose of 1 mg/kg. Oral dosing: Compounds were formulated at 1.0 mg/mL in a solution comprising 5% polyethylene glycol 400 and 95% (12% (w/v) sulfobutyl-β-cyclodextrin in water) (v/v). Formulated compounds were administered to male, 7-11 week old Sprague-Dawley rats by oral gavage at a dose of 10 mg/kg or 3 mg/kg.
Sample collection: Blood collections of about 0.2 mL per time point were performed from jugular vein or other suitable site of each animal, into pre-chilled commercial EDTA-K2 tubes and placed on wet ice until centrifugation. Blood samples were processed for plasma by centrifugation at approximately 4° C., 3,200 g for 10 min. Plasma was collected and transferred into pre-labeled 96 well plate or polypropylene tubes, quick frozen over dry ice and kept at −60° C. or lower until
Data analysis: Plasma concentration versus time data was plotted in graph and analyzed by non-compartmental approaches using the Phoenix WinNonlin 6.3 software program. Related PK parameters were calculated according to dosing route, e.g., CL, Vdss and C0 for intravenous administration, Cmax, Tmax or % F for extravascular administration, and T1/2, AUC(0-t), AUC(0-inf), MRT(0-t), MRT(0-inf) for all routes.

T1 sequence (P43220 24-463): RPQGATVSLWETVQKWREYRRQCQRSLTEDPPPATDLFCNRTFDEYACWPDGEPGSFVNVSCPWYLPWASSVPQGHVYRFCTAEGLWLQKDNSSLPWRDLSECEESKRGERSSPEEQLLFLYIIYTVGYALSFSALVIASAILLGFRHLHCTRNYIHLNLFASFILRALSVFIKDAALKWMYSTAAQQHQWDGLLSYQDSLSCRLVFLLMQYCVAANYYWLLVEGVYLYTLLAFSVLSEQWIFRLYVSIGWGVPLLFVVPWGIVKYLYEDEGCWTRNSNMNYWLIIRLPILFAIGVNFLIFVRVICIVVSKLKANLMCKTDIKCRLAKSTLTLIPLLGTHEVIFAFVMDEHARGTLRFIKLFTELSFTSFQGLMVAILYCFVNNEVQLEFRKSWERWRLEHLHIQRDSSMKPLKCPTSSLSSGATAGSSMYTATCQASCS

COc1cc(C(=O)O)cc2c1nc(CN1CCC(c3cccc(OCc4ccc(Cl)c5c4OCC5)n3)CC1)n2C [Compound 297, 2-((4-(6-((4-Chloro-2,3-dihydrobenzofuran-7-yl)methoxy)pyridin-2-yl)piperidin-1-yl)methyl)-4-methoxy-1-methyl-1H-benzo[d]imidazole-6-carboxylic acid]
EC50 [1]: < 10 nM | Emax [1]: > 85% | Cmax [2]: 2000 to 5000 ng/mL | half-life [2]: 1.5 to 2.5 h | bioavailability [2]: 25 to 50%

C[C@]1(c2ccc(Cl)cn2)Oc2cccc(C3CCN(Cc4nc5c(OC6CC6)cc(C(=O)O)cc5n4Cc4cncs4)CC3)c2O1 [Compound 6, (S)-2-((4-(2-(5-chloropyridin-2-yl)-2-methylbenzo[d][1,3]dioxol-4-yl)piperidin-1-yl)methyl)-4-cyclopropoxy-1-(thiazol-5-ylmethyl)-1H-benzo[d]imidazole-6-carboxylic acid]
EC50 [1]: < 10 nM | Emax [1]: > 85% | AUC [2]: < 500 ng·h/mL | Cmax [2]: < 500 ng/mL | half-life [2]: 1.5 to 2.5 h | bioavailability [2]: 25 to 50%

Cn1c(CN2CCC(c3cccc(OCc4ccc(Cl)cc4F)n3)CC2)nc2c(O)cc(C(=O)O)cc21 [Compound 307, 2-((4-(6-((4-Chloro-2-fluorobenzyl)oxy)pyridin-2-yl)piperidin-1-yl)methyl)-4-hydroxy-1-methyl-1H-benzo[d]imidazole-6-carboxylic acid]
EC50 [1]: 10 to 100 nM | Emax [1]: > 85% | AUC [2]: < 500 ng·h/mL | Cmax [2]: < 500 ng/mL | half-life [2]: ≥ 2.5 h | bioavailability [2]: 25 to 50%

Cn1c(CN2CCC(c3cccc(OCc4ccc(C(F)(F)F)cn4)n3)CC2)nc2c(OC(F)F)cc(C(=O)O)cc21 [Compound 229, 4-(Difluoromethoxy)-1-methyl-2-((4-(6-((5-(trifluoromethyl)pyridin-2-yl)methoxy)pyridin-2-yl)piperidin-1-yl)methyl)-1H-benzo[d]imidazole-6-carboxylic acid]
EC50 [1]: 100 to 1000 nM | Emax [1]: > 85%

Cn1c(CN2CCC(c3cc(OCc4ccc(Cl)cc4F)ccc3F)CC2)nc2c(OC(F)F)cc(C(=O)O)cc21 [Compound 167, 2-((4-(5-((4-Chloro-2-fluorobenzyl)oxy)-2-fluorophenyl)piperidin-1-yl)methyl)-4-(difluoromethoxy)-1-methyl-1H-benzo[d]imidazole-6-carboxylic acid]
EC50 [1]: > 1000 nM | Emax [1]: 25 to 50%

C[C@H](F)Oc1cc(C(=O)O)cc2c1nc(CN1CCC(c3cccc(OCc4ccc(Cl)cc4F)n3)CC1)n2C (single isomer, unassigned) [Compound 360]
EC50 [1]: < 10 nM | Emax [1]: > 85%

COCCOc1cc(C(=O)O)cc2nc(CN3CCC(c4cccc5c4O[C@@](C)(c4ccc(Cl)cn4)O5)CC3)n(C)c12 [Compound 76, (S)-2-((4-(2-(5-Chloropyridin-2-yl)-2-methylbenzo[d][1,3]dioxol-4-yl)piperidin-1-yl)methyl)-7-(2-methoxyethoxy)-1-methyl-1H-benzo[d]imidazole-5-carboxylic acid]
EC50 [1]: > 1000 nM | Emax [1]: 50 to 85%

COc1cc(C(=O)O)nc2c1nc(CN1CCC(c3cccc(OCc4ccc(Cl)cc4F)n3)CC1)n2C [Compound 324, 2-((4-(6-((4-Chloro-2-fluorobenzyl)oxy)pyridin-2-yl)piperidin-1-yl)methyl)-7-methoxy-3-methyl-3H-imidazo[4,5-b]pyridine-5-carboxylic acid]
EC50 [1]: 10 to 100 nM | Emax [1]: > 85%

N#Cc1ccc(COc2cccc(C3CCN(Cc4nc5cc(C(=O)O)c6c(c5n4C[C@@H]4CCO4)OCCO6)CC3)n2)c(F)c1 [Compound 101, (S)-2-((4-(6-((4-Cyano-2-fluorobenzyl)oxy)pyridin-2-yl)piperidin-1-yl)methyl)-1-(oxetan-2-ylmethyl)-7,8-dihydro-1H-[1,4]dioxino[2′,3′:3,4]benzo[1,2-d]imidazole-5-carboxylic acid]
EC50 [1]: 10 to 100 nM | Emax [1]: > 85%

COc1cc(C(=O)O)c(F)c2c1nc(CN1CCC(c3ccc(F)c(OCc4ccc(C#N)cc4F)c3)CC1)n2C [Compound 339, 2-((4-(3-((4-Cyano-2-fluorobenzyl)oxy)-4-fluorophenyl)piperidin-1-yl)methyl)-7-fluoro-4-methoxy-1-methyl-1H-benzo[d]imidazole-6-carboxylic acid]
EC50 [1]: 100 to 1000 nM | Emax [1]: > 85%

Cn1c(CN2CCC(c3cccc(OCc4ccc(Cl)cc4F)n3)CC2)nc2c(OC(F)(F)CF)cc(C(=O)O)cc21 [Compound 235, 2-((4-(6-((4-Chloro-2-fluorobenzyl)oxy)pyridin-2-yl)piperidin-1-yl)methyl)-1-methyl-4-(1,1,2-trifluoroethoxy)-1H-benzo[d]imidazole-6-carboxylic acid]
EC50 [1]: 10 to 100 nM | Emax [1]: > 85%

COc1cc(C(=O)O)cc2c1nc(CN1CCC(c3cccc4c3O[C@@](C)(c3ccc(Cl)cn3)O4)CC1)n2C(C)C [Compound 86, (S)-2-((4-(2-(5-Chloropyridin-2-yl)-2-methylbenzo[d][1,3]dioxol-4-yl)piperidin-1-yl)methyl)-1-isopropyl-4-methoxy-1H-benzo[d]imidazole-6-carboxylic acid]
EC50 [1]: 100 to 1000 nM | Emax [1]: > 85%

C[C@]1(c2ccc(Cl)cn2)Oc2cccc(C3CCN(Cc4nc5c6c(c(C(=O)O)cc5n4C[C@@H]4CCO4)OCCO6)CC3)c2O1 [Compound 93, 2-((4-((S)-2-(5-Chloropyridin-2-yl)-2-methylbenzo[d][1,3]dioxol-4-yl)piperidin-1-yl)methyl)-3-(((S)-oxetan-2-yl)methyl)-7,8-dihydro-3H-[1,4]dioxino[2′,3′:3,4]benzo[1,2-d]imidazole-5-carboxylic acid]
EC50 [1]: < 10 nM | Emax [1]: > 85%

N#Cc1ccc(COc2cccc(C3CCN(Cc4nc5c(O)nc(C(=O)O)cc5n4C[C@@H]4CCO4)CC3)n2)c(F)c1 [Compound 143, (S)-2-((4-(6-((4-Cyano-2-fluorobenzyl)oxy)pyridin-2-yl)piperidin-1-yl)methyl)-4-hydroxy-1-(oxetan-2-ylmethyl)-1H-imidazo[4,5-c]pyridine-6-carboxylic acid]
EC50 [1]: < 10 nM | Emax [1]: > 85%

COCCOc1cc(C(=O)O)cc2[nH]c(CN3CCC(c4cccc5c4O[C@@](C)(c4ccc(Cl)cn4)O5)CC3)nc12 [Compound 74, (S)-2-((4-(2-(5-Chloropyridin-2-yl)-2-methylbenzo[d][1,3]dioxol-4-yl)piperidin-1-yl)methyl)-4-(2-methoxyethoxy)-1H-benzo[d]imidazole-6-carboxylic acid]
EC50 [1]: 10 to 100 nM | Emax [1]: > 85%

Cn1c(CN2CCC(Oc3cccc(COc4ccc(C#N)cc4F)n3)CC2)nc2c(OC(F)F)cc(C(=O)O)cc21 [Compound 149, 2-((4-((6-((4-Cyano-2-fluorophenoxy)methyl)pyridin-2-yl)oxy)piperidin-1-yl)methyl)-4-(difluoromethoxy)-1-methyl-1H-benzo[d]imidazole-6-carboxylic acid]
EC50 [1]: 10 to 100 nM | Emax [1]: > 85%

COc1cc(C(=O)O)cc2c1nc(CN1CCC(c3cccc(OCc4cc(F)c(C#N)cc4F)n3)CC1)n2C [Compound 327, 2-((4-(6-((4-Cyano-2,5-difluorobenzyl)oxy)pyridin-2-yl)piperidin-1-yl)methyl)-4-methoxy-1-methyl-1H-benzo[d]imidazole-6-carboxylic acid]
EC50 [1]: < 10 nM | Emax [1]: > 85%

Cn1c(CN2CCC(c3cccc(F)c3OCc3ccc(Cl)cc3F)CC2)nc2c(OC(F)F)cc(C(=O)O)cc21 [Compound 140, 2-((4-(2-((4-Chloro-2-fluorobenzyl)oxy)-3-fluorophenyl)piperidin-1-yl)methyl)-4-(difluoromethoxy)-1-methyl-1H-benzo[d]imidazole-6-carboxylic acid]
EC50 [1]: 10 to 100 nM | Emax [1]: > 85%

CCOc1cc(C(=O)NS(C)(=O)=O)cc2c1nc(CN1CCC(c3cccc(OCc4ccc(C#N)cc4F)n3)CC1)n2C [Compound 261, 2-((4-(6-((4-Cyano-2-fluorobenzyl)oxy)pyridin-2-yl)piperidin-1-yl)methyl)-4-ethoxy-1-methyl-N-(methylsulfonyl)-1H-benzo[d]imidazole-6-carboxamide]
EC50 [1]: 10 to 100 nM | Emax [1]: > 85%

Cn1c(CN2CCC(c3cccc(OCc4ccc(C#N)cc4F)n3)CC2)nc2c(OCCO)cc(C(=O)O)cc21 [Compound 291, 2-((4-(6-((4-Cyano-2-fluorobenzyl)oxy)pyridin-2-yl)piperidin-1-yl)methyl)-4-(2-hydroxyethoxy)-1-methyl-1H-benzo[d]imidazole-6-carboxylic acid]
EC50 [1]: < 10 nM | Emax [1]: > 85%
